{"source": "ChEMBL document CHEMBL1142962", "about": "“Antiproliferative prenylated stilbenes and flavonoids from Macaranga alnifolia from the Madagascar rainforest” (J Nat Prod, 2007)", "tested_on": "A2780 (human ovarian cancer)", "assay": "Antiproliferative activity against drug-sensitive human A2780 cells", "data": [{"compound": "CC(C)=CCC/C(C)=C/Cc1c(O)cc2c(c1O)C(=O)[C@H](O)[C@@H](c1ccc(O)cc1)O2", "note": "[BONANNIOL A]", "values": [{"measurement": "IC50", "result": 23.5, "unit": "µM"}]}, {"compound": "CC(C)=CCC/C(C)=C/Cc1c(O)cc2c(c1O)C(=O)C[C@@H](c1ccc(O)cc1)O2", "note": "[BONANNIONE A]", "values": [{"measurement": "IC50", "result": 24.5, "unit": "µM"}]}, {"compound": "CC(C)=CCC/C(C)=C/Cc1c(O)cc2c(c1O)C(=O)[C@H](O)[C@@H](c1ccc(O)c(O)c1)O2", "note": "[DIPLACOL]", "values": [{"measurement": "IC50", "result": 11.5, "unit": "µM"}]}, {"compound": "CC(C)=CCC/C(C)=C/Cc1c(O)cc2c(c1O)C(=O)C[C@@H](c1ccc(O)c(O)c1)O2", "note": "[NYMPHAEOL A]", "values": [{"measurement": "IC50", "result": 10.5, "unit": "µM"}]}]}
